Results reported in patent US10399958B2, “PPAR agonists, compounds, pharmaceutical compositions, and methods of use thereof” (Mitobridge, Inc., priority 2015, dated 2019).
Read-outs that look alike come from different tables or passages of the source.

What was measured:
PPAR delta = PPAR delta (Homo sapiens (Human), UniProt Q03181); experiment: PPARδ activity screen: GAL4-PPARδ LBD transactivation luciferase reporter in CV-1 cells; assay type: cell-based
Method: CV-1 cells were grown in DMEM+10% charcoal stripped FCS. Cells were seeded into 384-well plates the day before transfection to give a confluency of 50-80% at transfection. A total of […] containing 0.64 micrograms pCMX-PPARDelta LBD, 0.1 micrograms pCMXβGal, 0.08 micrograms pGLMH2004 reporter and 0.02 micrograms pCMX empty vector was transfected per well using FuGene transfection reagent according to the manufacturer's instructions (Roche). Cells were allowed to express protein for 48 h followed by addition of compound.
Human PPARδ was used to PCR amplify the PPARδ LBD. […] Ensuing fusions were verified by sequencing.
All compounds were dissolved in DMSO and diluted 1:1000 upon addition to the cells. Compounds were tested in quadruple in concentrations ranging from 0.001 to 100 μM. Cells were treated with compound for 24 h followed by luciferase assay. Each compound was tested in at least two separate experiments.
Medium including test compound was aspirated and washed with PBS. 50 μl PBS including 1 mM Mg++ and Ca++ were then added to each well. The luciferase assay was performed using the LucLite kit according to the manufacturer's instructions (Packard Instruments). Light emission was quantified by counting on a Perkin Elmer Envision reader. […] Beta-galactosidase assays were performed in the microwell plates using a kit from Promega and read in a Perkin Elmer Envision reader. The beta-galactosidase data were used to normalize (transfection efficiency, cell growth etc.) the luciferase data.
The activity of a compound is calculated as fold induction compared to an untreated sample. For each compound the efficacy (maximal activity) is given as a relative activity compared to GW501516, a PPARδ agonist. […] EC50 values were calculated via non-linear regression usingGraphPad PRISM (GraphPad Software, San Diego, Calif.).

[1] = Pharmacokinetic (PK) screening (i.v.) in male CD1 mice; assay type: in vivo, mouse; conditions: for clearance: male, CD1, mouse, plasma, iv
Method: In this example, the intravenous PK profile of several PPARδ agonists disclosed herein in male CD1 mice was determined. Similar methods can be used to analyze other compounds provided herein. All compounds were administered separately to CD1 mice at 1 mg/kg (i.v.), except the comparator compound to 2c was administered at 3 mg/kg (i.v.), as noted below.

[2] = system: Sprague-Dawley rat acute kidney injury; experiment: Ischemia-reperfusion kidney injury in rats, plasma creatinine; assay type: in vivo; conditions: 30 mg/kg orally 4 hours after surgery, blood 24 hours after reperfusion, FIG. 11
Method: Sprague-Dawley male rats approximately 280-300 g, with ad libitum access to standard feed and water were used in these experiments. Rats were anesthetized with isoflurane and placed ventrally on a temperature controlled heated surgical platform. A skin incision was made on the dorsal surface, exposing both kidneys through flank incisions. Vascular clips were applied to both renal pedicles and occlusion lasted 45 minutes. After 45 min, the clips were removed, kidneys were monitored for successful reperfusion, and surgical sites were sutured. The sham group was subjected to similar surgical procedures, except that the occluding clamps were not applied. Four independent studies, testing each compound were performed. Compounds were formulated as a fresh daily suspension in 0.25% sodium carboxymethyl-cellulose, 0.25% Tween-80 in purified water. Compounds were dosed orally at 30 mg/kg 4 hours after animals awoke from surgery and sham surgery and IRI control animals were similarly dosed with vehicle.
Twenty-four (24) hours after reperfusion, blood was collected in K2 EDTA tubes by retro-orbital bleeding from all groups under mild isoflurane anesthesia. Plasma was separated by centrifugation at 3000 rpm for 10 minutes at 4° C. Plasma creatinine was analyzed using a fully automated clinical biochemistry analyzer (Siemens Dimension® Xpand® Plus Integrated Chemistry System)
Creatinine was tested for normal distribution in all groups via a D'Agostino-Pearson omnibus normality test and a Shapiro-Wilk normality test. Normally distributed data was subjected to an unpaired, two-tailed t test. Non-normally distributed data was subjected to a Mann-Whitney test (non-parametric). Statistical significance is determined by p<0.05 of IRI-vehicle compared to compound treated groups.

[3] = CV-1 cells, 24 h compound treatment, luciferase, read-out: PPAR delta transactivation EC50
[4] = 1 mg/kg, I.V. 1 mg/kg dose, read-out: CL
[5] = 1 mg/kg, I.V. 1 mg/kg dose, read-out: High or Low CL

Chain of PPAR delta (Q03181 128-441 limits assumed): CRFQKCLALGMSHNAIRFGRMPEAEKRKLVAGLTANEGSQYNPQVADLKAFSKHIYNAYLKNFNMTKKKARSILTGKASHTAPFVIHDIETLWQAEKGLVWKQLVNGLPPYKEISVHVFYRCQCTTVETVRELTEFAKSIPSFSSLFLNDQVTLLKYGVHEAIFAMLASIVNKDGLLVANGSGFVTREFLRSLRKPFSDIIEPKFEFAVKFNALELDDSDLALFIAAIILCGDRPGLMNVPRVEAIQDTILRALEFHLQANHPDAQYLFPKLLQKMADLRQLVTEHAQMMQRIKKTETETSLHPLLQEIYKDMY

Row | Structure (SMILES) | EC50 (PPAR delta; [3]) [nM] | clearance [1, 4] [mL/min/kg] | clearance [1, 5] [mL/min/kg] | other results
1 | Cc1cnc(-c2ccc(C(F)(F)F)cc2)n1Cc1cc(F)ccc1OCCC[C@@H](C)CC(=O)O [Compound 2k, (R)-6-(4-fluoro-2-((5-methyl-2-(4-(trifluoromethyl)phenyl)-1H-imidazol-1-yl)methyl)phenoxy)-3-methylhexanoic acid] | 6.6 | 17 | < 85 | 
2 | Cc1cnc(-c2ccc(OC(F)(F)F)cc2)n1Cc1ccccc1OCCC[C@@H](C)CC(=O)O [Compound 2a, (R)-3-methyl-6-(2-((5-methyl-2-(4-(trifluoromethoxy)phenyl)-1H-imidazol-1-yl)methyl)phenoxy)hexanoic acid] |  | 33 | < 85 | EC50 (PPAR delta): 1 nM; Plasma creatinine [2]: reduce plasma creatinine
3 | Cc1cnc(-c2ccc(Cl)cc2)n1Cc1ccccc1OCCC[C@@H](C)CC(=O)O [Compound 2b, (R)-6-(2-((2-(4-chlorophenyl)-5-methyl-1H-imidazol-1-yl)methyl)phenoxy)-3-methylhexanoic acid] |  | 22 | < 85 | EC50 (PPAR delta): 7.8 nM
4 | Cc1cnc(-c2ccc(C(F)(F)F)cc2)n1Cc1ccccc1OCCCCC(C)(C)C(=O)O [Compound 2q, 2,2-dimethyl-6-(2-((5-methyl-2-(4-(trifluoromethyl)phenyl)-1H-imidazol-1-yl)methyl)phenoxy)hexanoic acid] | 14.3 | 11 | < 85 | 
5 | CSc1ccc(-c2ncc(C)n2Cc2ccccc2OCCC[C@@H](C)CC(=O)O)cc1 [Compound 2p, (R)-3-methyl-6-(2-((5-methyl-2-(4-(methylthio)phenyl)-1H-imidazol-1-yl)methyl)phenoxy)hexanoic acid] | 13.1 |  |  | 
6 | Cc1ccc(-c2ncc(C)n2Cc2ccccc2OCCC[C@@H](C)CC(=O)O)cc1 [Compound 2f, (R)-3-methyl-6-(2-((5-methyl-2-(p-tolyl)-1H-imidazol-1-yl)methyl)phenoxy) hexanoic acid] |  |  |  | EC50 (PPAR delta): 24.3 nM
7 | Cc1cnc(-c2ccc(OC(F)(F)F)cc2)n1Cc1ccccc1OCCCCCC(=O)O [comparator compound to 2e, reference compound] |  | 185 | > 85 | 
8 | Cc1cnc(-c2ccc(-c3ccco3)cc2)n1Cc1ccccc1OCCC[C@@H](C)CC(=O)O [Compound 2c, (R)-6-(2-((2-(4-(furan-2-yl)phenyl)-5-methyl-1H-imidazol-1-yl)methyl)phenoxy)-3-methylhexanoic acid] | 3.7 | 73 | < 85 | 
9 | Cc1cnc(-c2ccc(C(F)F)cc2)n1Cc1ccccc1OCCC[C@@H](C)CC(=O)O [Compound 2o, (R)-6-(2-((2-(4-(difluoromethyl)phenyl)-5-methyl-1H-imidazol-1-yl)methyl)phenoxy)-3-methylhexanoic acid] | 9.9 |  |  | 
10 | Cc1cnc(-c2ccc(C(F)(F)F)nc2)n1Cc1ccccc1OCCCCCC(=O)O [Comparator Compound 2, reference compound] | 3.8 |  |  | 
11 | Cc1cnc(-c2ccc(-c3ccco3)cc2)n1Cc1ccccc1OCCCCCC(=O)O [comparator compound to 2c, reference compound] |  |  |  | clearance ([1]; 3 mg/kg, 3 mg/kg i.v. dose, read-out: CL): 270 mL/min/kg; clearance ([1]; 3 mg/kg, 3 mg/kg i.v. dose, read-out: High or Low CL): > 85 mL/min/kg
12 | Cc1cnc(-c2ccc(F)cc2)n1Cc1ccccc1OCCC[C@@H](C)CC(=O)O [Compound 2g, (R)-6-(2-((2-(4-fluorophenyl)-5-methyl-1H-imidazol-1-yl)methyl)phenoxy)-3-methylhexanoic acid] | 39 |  |  | 
13 | Cc1cnc(-c2ccc(C(F)(F)F)c(F)c2)n1Cc1ccccc1OCCCCC(C)(C)C(=O)O [Compound 2h, 6-(2-((2-(3-fluoro-4-(trifluoromethyl)phenyl)-5-methyl-1H-imidazol-1-yl)methyl)phenoxy)-2,2-dimethylhexanoic acid] | 3.5 | 25 | < 85 | 
14 | Cc1cnc(-c2ccc(C(F)(F)F)cc2)n1Cc1ccccc1OCCCCCC(=O)O [Comparator Compound 1, reference compound] | 0.1 |  |  | 
15 | Cc1cnc(-c2ccc(C(F)(F)F)nc2)n1Cc1ccccc1OCCC[C@@H](C)CC(=O)O [Compound 2n, (R)-3-methyl-6-(2-((5-methyl-2-(6-(trifluoromethyl)pyridin-3-yl)-1H-imidazol-1-yl)methyl)phenoxy)hexanoic acid] |  | 62 | < 85 | Plasma creatinine [2]: reduce plasma creatinine
16 | Cc1cnc(-c2ccc(OC(F)F)cc2)n1Cc1ccccc1OCCC[C@@H](C)CC(=O)O [Compound 2l, (R)-6-(2-((2-(4-(difluoromethoxy)phenyl)-5-methyl-1H-imidazol-1-yl)methyl)phenoxy)-3-methylhexanoic acid] | 13.5 |  |  | 
17 | Cc1cnc(-c2ccc(Cl)c(F)c2)n1Cc1ccccc1OCCCCC(C)(C)C(=O)O [Compound 2i, 6-(2-((2-(4-chloro-3-fluorophenyl)-5-methyl-1H-imidazol-1-yl)methyl)-phenoxy)-2,2-dimethylhexanoic acid] | 18.8 |  |  | 
18 | Cc1cnc(-c2ccc(C(F)(F)F)nc2)n1Cc1ccccc1OCCCCCC(=O)O [comparator compound to 2n, reference compound] |  |  |  | CL / exposure after i.v. dose (result in words) ([1]; I.V. 1 mg/kg dose): Due to low exposure data could not be measured
19 | C/C(=C\COc1ccccc1Cn1c(C)cnc1-c1ccc(OC(F)(F)F)cc1)CCC(=O)O [Compound 2e, (E)-4-methyl-6-(2-((5-methyl-2-(4-(trifluoromethoxy)phenyl)-1H-imidazol-1-yl)methyl)phenoxy)hex-4-enoic acid] | 0.2 | 70 | < 85 | 
20 | Cc1ccc(OCCC[C@@H](C)CC(=O)O)c(Cn2c(C)cnc2-c2ccc(OC(F)(F)F)cc2)c1 [Compound 2m, (R)-3-methyl-6-(4-methyl-2-((5-methyl-2-(4-(trifluoromethoxy)phenyl)-1H-imidazol-1-yl)methyl)phenoxy)hexanoic acid] | 0.5 | 85 | < 85 | 
21 | Cc1cnc(-c2ccc(C(F)(F)F)cc2)n1Cc1ccccc1OCCCCCC(=O)O [comparator compound to 2d, reference compound] |  |  |  | CL / exposure after i.v. dose (result in words) ([1]; I.V. 1 mg/kg dose): Due to low exposure data could not be measured
22 | Cc1cnc(-c2ccc(Cl)c(F)c2)n1Cc1ccccc1OCCC[C@@H](C)CC(=O)O [Compound 2j, (R)-6-(2-((2-(4-chloro-3-fluorophenyl)-5-methyl-1H-imidazol-1-yl)methyl)phenoxy)-3-methylhexanoic acid] | 0.8 | 38 | < 85 | 
